6 compounds from ChEMBL document CHEMBL1128323, “Antifungal agents. 9. 3-Aryl-4-[alpha-(1H-imidazol-1-yl)arylmethyl]pyrroles: a new class of potent anti-Candida agents” (1995) can be followed below.

Converted amounts (≈) assume the structure as drawn.

Holding throughout (type): functional
In assay [1] the test system is Candida albicans. Put plainly: Inhibitory activity against the Candida albicans (40 clinical isolates), determined at pH-7.2.
The test system of assay [2] is Candida. Nature of the assay: 50% inhibitory activity against the Candida. species (40 clinical isolates) was determined at pH-7.2.
Assay [3] relates to Candida. Put plainly: Percent resistance against all Candida. species (40 clinical isolates) at 256 micro g/mL (pH=7.2), activity is expressed as R%.
Assay [4] concerns Candida albicans. Put plainly: Resistance against Candida. albicans (40 clinical isolates) at 256 ug/mL (pH=7.2), activity is expressed as R%.
Assay [5] has as its system Candida. Put plainly: Inhibitory activity against Candida. species (40 clinical isolates), determined at pH-5.8.
The subject of assay [6] is Candida albicans. Nature of the assay: 50% inhibitory activity against Candida albicans (40 clinical isolates) determined at pH-5.8.
Assay [7] relates to Candida albicans. Put plainly: 50% inhibitory activity against Candida albicans (40 clinical isolates) determined at pH-7.2.
Assay [8] relates to Candida albicans. Nature of the assay: Inhibitory activity against Candida albicans (40 clinical isolates), determined at pH-7.2.
The subject of assay [9] is Candida albicans. Nature of the assay: Inhibitory activity against Candida albicans (40 clinical isolates), determined at pH-5.8.
Assay [10] concerns Candida. Nature of the assay: Inhibitory activity against Candida. species. (40 clinical isolates), determined at pH-7.2.
The test system of assay [11] is Candida albicans. Nature of the assay: Inhibitory activity against the Candida albicans (40 clinical isolates), determined at pH-5.8.
Assay [12] concerns Candida albicans. Put plainly: Percent resistance against Candida albicans (40 clinical isolates) at 256 micro g/mL (pH=5.8), activity is expressed as R%.
The test system of assay [13] is Candida. Nature of the assay: Inhibitory activity against Candida. species. (40 clinical isolates), determined at pH-5.8.
For assay [14], the system named is Candida. Nature of the assay: Resistance against all Candida. species (40 clinical isolates) at 256 micro g/mL (pH=5.8). Activity is expressed as R%.
Assay [15] relates to Candida. Put plainly: 90% inhibitory activity against Candida. species (40 clinical isolates) determined at pH-7.2.
Assay [16] relates to Candida. Put plainly: 90% inhibitory activity against the Candida. species (40 clinical isolates) was determined at pH-7.2.
Setting [17] is: Candida albicans, read-out: MIC50.

For the compound `O=[N+]([O-])c1ccc(C(c2c[nH]cc2-c2ccc(Cl)cc2Cl)n2ccnc2)cc1` (stereo unspecified), the MIC90 against Candida albicans [1] was 64 µg/mL (≈ 155 µM); in the assay with Candida [5], 32 µg/mL (≈ 77.4 µM); in the assay on Candida albicans [11], 64 µg/mL (≈ 155 µM); with Candida [15] it was above 256 µg/mL. Moreover, the MIC50 against Candida [2] turned out to be 256 µg/mL (≈ 619 µM); with Candida [5], 32 µg/mL (≈ 77.4 µM); against Candida albicans [6] it was 16 µg/mL (≈ 38.7 µM); in the assay on Candida albicans [7] (setting [17]), 32 µg/mL (≈ 77.4 µM). The R in the assay with Candida [3] amounted to 30%; with Candida albicans [4] it was 0%; with Candida albicans [12] it was 0%; in the assay with Candida [14], 0%. Further, the minimal inhibitory concentration (MIC) was 38.5 µg/mL (≈ 93.2 µM) in the assay on Candida albicans [8], 22.9 µg/mL (≈ 55.4 µM) in the assay on Candida albicans [9], above 207 µg/mL in the assay with Candida [10] and 30.2 µg/mL (≈ 73.1 µM) against Candida [13].

On to `Cc1ccc(C(c2c[nH]cc2-c2ccccc2Cl)n2ccnc2)cc1` (stereo unspecified), for which the MIC90 was determined as 64 µg/mL (≈ 184 µM) against Candida albicans [1], 64 µg/mL (≈ 184 µM) in the assay on Candida [5], 64 µg/mL (≈ 184 µM) against Candida albicans [11] and 32 µg/mL (≈ 92 µM) in the assay with Candida [15]. In addition, the MIC50 was 32 µg/mL (≈ 92 µM) against Candida [2], 32 µg/mL (≈ 92 µM) against Candida [5], 32 µg/mL (≈ 92 µM) in the assay with Candida albicans [6] and 4 µg/mL (≈ 11.5 µM) in the assay with Candida albicans [7] (setting [17]). In addition, the R in the assay with Candida [3], in the assay with Candida albicans [4], in the assay with Candida albicans [12] and in the assay with Candida [14] was 0% in each case. Moreover, the MIC in the assay with Candida albicans [8] was 13.2 µg/mL (≈ 37.9 µM); in the assay on Candida albicans [9], 35.4 µg/mL (≈ 102 µM); with Candida [10], 30.1 µg/mL (≈ 86.5 µM); in the assay with Candida [13], 41.7 µg/mL (≈ 120 µM).

For the compound `Fc1ccc(C(c2c[nH]cc2-c2ccccc2)n2ccnc2)cc1` (stereo unspecified), the MIC90 with Candida albicans [1] was found to be 64 µg/mL (≈ 202 µM); against Candida [5], 128 µg/mL (≈ 403 µM); against Candida albicans [11] it was 128 µg/mL (≈ 403 µM); against Candida [16], 128 µg/mL (≈ 403 µM). For the same compound, the MIC50 was 64 µg/mL (≈ 202 µM) in the assay on Candida [2], 64 µg/mL (≈ 202 µM) against Candida [5], 64 µg/mL (≈ 202 µM) with Candida albicans [7] and 32 µg/mL (≈ 101 µM) in the assay with Candida albicans [7] (setting [17]). Further, the R with Candida [3], in the assay on Candida albicans [4], with Candida albicans [12] and in the assay with Candida [14] was 0% each time. Besides, the MIC in the assay with Candida albicans [8] is 55.1 µg/mL (≈ 174 µM); in the assay with Candida albicans [9], 71.2 µg/mL (≈ 224 µM); in the assay with Candida [10], 74.5 µg/mL (≈ 235 µM); against Candida [13], 99.5 µg/mL (≈ 314 µM).

For the compound `Clc1ccc(-c2c[nH]cc2C(c2ccc(Cl)c(Cl)c2)n2ccnc2)cc1Cl` (stereo unspecified), the MIC90 in the assay with Candida albicans [1] was 32 µg/mL (≈ 73.2 µM); against Candida [5], above 256 µg/mL; against Candida albicans [11], 32 µg/mL (≈ 73.2 µM); in the assay on Candida [15], above 256 µg/mL. Moreover, the MIC50 in the assay with Candida [2] was above 256 µg/mL; against Candida [5], 256 µg/mL (≈ 586 µM); against Candida albicans [6], 8 µg/mL (≈ 18.3 µM); with Candida albicans [7] (setting [17]), 8 µg/mL (≈ 18.3 µM). Further, the R in the assay on Candida [3] stood at 50%; with Candida albicans [4] it was 0%; in the assay on Candida albicans [12], 0%; in the assay on Candida [14] it was 50%. For the same compound, the MIC against Candida albicans [8] is 14 µg/mL (≈ 31.9 µM); against Candida albicans [9], 9.2 µg/mL (≈ 21 µM); in the assay on Candida [10] it was above 309 µg/mL; with Candida [13], above 328 µg/mL.

Take `Cc1ccc(C(c2c[nH]cc2-c2ccccc2)n2ccnc2)cc1` (stereo unspecified): the MIC90 worked out at 64 µg/mL (≈ 204 µM) in the assay on Candida albicans [1], 256 µg/mL (≈ 817 µM) with Candida [5], 256 µg/mL (≈ 817 µM) with Candida albicans [11] and 64 µg/mL (≈ 204 µM) with Candida [16]. Also, the MIC50 in the assay on Candida [2] amounted to 64 µg/mL (≈ 204 µM); in the assay on Candida [5] it was 64 µg/mL (≈ 204 µM); against Candida albicans [7], 64 µg/mL (≈ 204 µM); in the assay on Candida albicans [7] (setting [17]), 32 µg/mL (≈ 102 µM). Further, the R in the assay on Candida [3], in the assay with Candida albicans [4], in the assay with Candida albicans [12] and with Candida [14] was 0% each time. The MIC in the assay on Candida albicans [8] was 48.4 µg/mL (≈ 154 µM); against Candida albicans [9] it was 133 µg/mL (≈ 425 µM); in the assay with Candida [10] it was 51.6 µg/mL (≈ 165 µM); in the assay with Candida [13] it was 71 µg/mL (≈ 227 µM).

Consider `Clc1ccc(-c2c[nH]cc2C(c2ccc(Cl)cc2Cl)n2ccnc2)c(Cl)c1` (stereo unspecified), for which the MIC90 in the assay on Candida albicans [1] came out at 16 µg/mL (≈ 36.6 µM); against Candida [5], 32 µg/mL (≈ 73.2 µM); in the assay with Candida albicans [11] it was 16 µg/mL (≈ 36.6 µM); in the assay on Candida [15] it was 256 µg/mL (≈ 586 µM). Further, the MIC50 was 256 µg/mL (≈ 586 µM) in the assay on Candida [2], 32 µg/mL (≈ 73.2 µM) against Candida [5], 2 µg/mL (≈ 4.58 µM) in the assay with Candida albicans [6] and 8 µg/mL (≈ 18.3 µM) in the assay with Candida albicans [7] (setting [17]). The R in the assay on Candida [3], in the assay with Candida albicans [4], in the assay with Candida albicans [12] and in the assay with Candida [14] was 0% each time. Further, the MIC worked out at 20.6 µg/mL (≈ 47.1 µM) against Candida albicans [8], 7.4 µg/mL (≈ 16.9 µM) in the assay on Candida albicans [9], 101 µg/mL (≈ 231 µM) against Candida [10] and 23.4 µg/mL (≈ 53.5 µM) in the assay with Candida [13].
